Here are results for two compounds from patent US20230091310A1, “Inhibitor of Fertilized Egg Fragmentation” (priority 2019, published 2023).

Assay [1] relates to mouse sperm. The assay is described as follows: Sperm motility test (CASA). Particulars: 1 μL of 10 μM added to 100 μL TYH drop; 3 h and 6 h incubation; vs control. Type of assay: cell-based, mouse (C57BL/6 J line). As for the experimental part: A 100 μL drop of TYH medium was prepared in a plastic dish, and liquid paraffin was laid over it until the drop was completely covered. The plastic dish was then allowed to stand for 16 hours in an incubator set to 5% CO2, 37° C. The TYH medium drop on the plastic dish was used for a sperm motility test and fertilization test. A sperm mass harvested from the epididymis of a 8- to 12-week-old sexually matured male mouse (C57BL/6 J line) was transferred to a drop prepared in the TYH medium. It was then returned to the plastic dish in the incubator and allowed to stand for 1 hour. After standing for 1 hour, 1 μL of selenoneine (10 μM) prepared in Example 1 was added to a drop of sperm-containing fertilization medium (or not added for the control), and the mixture was allowed to stand in an incubator. After incubation for 3 hours, the sperm motility was measured using CASA, and the proportion of sperm was measured, dividing it into motile sperm and progressive sperm (FIGS. 2A and B). After incubation for 6 hours, the proportion of sperm was then measured with similar division based on sperm motility (VCL) (FIGS. 2C and D).

Assay [2] relates to fertilized eggs. The assay is described as follows: Fertilized egg fragmentation after treatment of eggs, in vitro fertilization. Type of assay: cell-based, mouse (C57BL/6 J line). Particulars: eggs cultured with 100 nM; 24 h after sperm addition; vs control. The procedure: Female mice (C57BL/6 J line: 8- to 12-week-old) were treated for superovulation by the following procedure, and the eggs were harvested.
1. Animal serotropin (PMSG, ASKA Pharmaceutical Co., Ltd.) and animal gonadotropin (hCG, ASKA Pharmaceutical Co., Ltd.) were dissolved in physiological saline to […]. 2. The mice were intraperitoneally administered PMSG at 0.1 mL(5 units)/mouse, and after 48 hours they were intraperitoneally administered hCG at 0.1 mL (5 units)/mouse. 3. After hCG administration, the cumulus cells and egg masses were taken through the fallopian tubes of the mice at 14 to 16 hours.
The cumulus cells and egg masses harvested from the fallopian tubes of the superovulated mice were transferred to a drop of 100 μL TYH medium that had been previously incubated in 5% CO2 at 37° C., and allowed to stand in the incubator.
The harvested eggs were cultured for 2 hours in TYH medium, and then the 1 μL selenoneine (10 μM) solution prepared in Example 1 was added to the TYH medium drop (or not added for the control), and further culturing was carried out for 2 hours with a final concentration of 100 nM selenoneine in the medium. […] After 24 hours had passed in the presence of selenoneine, the fertilization rate was measured and the numbers of normal 2-cell stage embryos and fragmented embryos were counted. […]

Assay [3] relates to mouse sperm. Nature of the assay: Sperm membrane protection (propidium iodide / Hoechst 33342 staining). Type of assay: cell-based, mouse (C57BL/6 J line). The procedure:
(§1) A sperm mass harvested from the epididymis of an 8- to 12-week-old sexually matured male mouse (C57BL/6 J line) was transferred to a drop prepared in the TYH medium. It was then returned to the plastic dish in the incubator and allowed to stand for 1 hour. After standing for 1 hour, the selenoneine prepared in Example 1 was added to a drop of sperm-containing fertilization medium to final concentrations of 10 nM, 1 μM and 100 μM (or was not added for the control), and the mixture was cultured in an incubator for 3 hours, 6 hours and 9 hours, after which the sperm were obtained. The sperm were also obtained before culturing (0 h). The nuclei of obtained sperm were stained with 2 μg/mL of propidium iodide (PI: Sigma-Aldrich Japan, KK.) and 16.2 μM of Hoechst AG 33342 (Hoechst3342: Invitrogen Corp.), and observed under a fluorescent microscope (FIG. 9A). The number of sperm whose nuclei were unstained with propidium iodide was divided by the number of sperm whose nuclei were stained with Hoechst AG, to calculate the proportion of sperm which retained membranes (FIG. 9B).
Hoechst AG is cell membrane-permeable and can stain all sperm nuclei, whereas propidium iodide is membrane-impermeable and can only stain the nuclei of dead sperm or sperm that have damaged membranes. Therefore, the number of sperm whose nuclei were not stained with propidium iodide but were stained only by Hoechst AG represents the number of normal sperm which retained their membranes.
as §1, with “(Hoechst3342: distributed by” for “(Hoechst3342:”, “microscope.” for “microscope (FIG. 9A).”, “9C).” for “9B).”

Assay [4] concerns eggs. Nature of the assay: Oxidative stress test (ROS/RNS Detection Kit) in eggs. Particulars: 1 μM each; 15 hours on hot plate; vs vehicle (0.1% DMSO). Type of assay: cell-based, mouse. As for the experimental part: Mouse cumulus cells-egg masses harvested by the method of Example 3 were stored in TYH medium and the cumulus cells were removed by 300 μg/mL hyaluronidase treatment to recover the eggs alone. TYH medium containing 1 μM selenoneine (SeN), TYH medium containing 1 μM ergothioneine (Erg) and TYH medium containing 1 μM ergothioneine and 1 μM ebselen (Tokyo Kasei Kogyo Co., Ltd.) (Erg+Eb) were prepared and incubated on a hot plate set to 37° C. As a control, a TYH medium (vehicle) containing the DMSO (0.1%) used to dissolve the ebselen was used. The collected eggs were transferred to incubated selenoneine-containing TYH medium and cultured under shielding for 15 hours. The reagent of a ReOIS-ID ROS/RNS Detection Kit (product of Enzo Co.) was added to the medium containing the cultured eggs, according to the manufacturer's protocol. DAPI (Wako Pure Chemical Industries, Ltd.) had already been separately added to stain the nuclei. The nuclei (DAPI) and the reactive oxygen species (ROS), reactive nitrogen species (RNS) and superoxides in the eggs were observed under a fluorescent microscope (FIG. 8A). The fluorescence intensity was calculated and graphed (FIGS. 8B to D).

Assay [5] has as its system eggs. Nature of the assay: Stress-induced egg fragmentation (hot plate culturing). Format: cell-based, mouse. As to conditions: hot plate 37° C.; for egg fragmentation: after 21 and 24 hours of culturing. As for the experimental part: (§2) Mouse cumulus cells-egg masses harvested by the method of Example 3 were stored in TYH medium and the cumulus cells were removed by 300 μg/mL hyaluronidase treatment to recover the eggs alone. TYH medium was prepared with selenoneine at 10 nM, 100 nM, 1 μM, 10 μM and 100 μM, and incubated on a hot plate set to 37° C. Selenoneine-free THY medium was used as the control. The collected eggs were transferred to the incubated selenoneine-containing TYH medium and cultured under shielding for 12 hours, 15 hours, 18 hours, 21 hours and 24 hours, after which they were observed under a stereomicroscope and the proportion of fragmented eggs was examined (FIG. 6). The numbers of cultured eggs in each selenoneine-containing medium were 10 nM: 107, 100 nM: 161, 1 μM: 155, 10 μM: 118, 100 μM: 85 and control: 83.
Culturing by incubation on a hot plate instead of a CO2 incubator produced stress in the eggs. […] The numbers of cultured eggs in each medium were 10 nM: 63, 100 nM: 66, 1 μM: 63, 10 μM: 71, 100 μM: 54 and control: 83.
as §2, with “with ergothioneine” for “with selenoneine”, “C. Ergothioneine-free” for “C. Selenoneine-free”, “(FIG. 7).” for “(FIG. 6). The numbers of cultured eggs in each selenoneine-containing medium were 10 nM: 107, 100 nM: 161, 1 μM: 155, 10 μM: 118, 100 μM: 85 and control: 83.”
Culturing by incubation on a hot plate instead of a CO2 incubator produced stress in the eggs.

Assay [6] concerns fertilized eggs. Nature of the assay: Fertilized egg fragmentation after treatment of sperm, in vitro fertilization. Type of assay: cell-based, mouse (C57BL/6 J line). As to conditions: sperm incubated 6 h with 100 nM, 24 h after fertilization; for fragmented embryos: vs untreated control. The procedure:
In the same manner as Example 2, sperm incubated for 6 hours in selenoneine-containing TYH medium (final concentration: 100 nM) were separated off with the medium and washed with TYH medium that had been previously incubated at 37° C. in a 5% CO2 atmosphere, after which the washed sperm were separated off and added to TYH medium containing cumulus cells-egg masses. After 24 hours had passed, the fertilization rate was measured and the numbers of normal 2-cell stage embryos and fragmented embryos were counted. For measurement of the fertilization rate, second polar body release and the presence or absence of cell nuclei in the split bodies of each of the 2-cell stage embryos were visually observed in the bright field of a stereomicroscope, and normal 2-cell stage embryos and fragmented embryos were likewise observed in the bright field of a stereomicroscope.
The inhibiting effect of ergothioneine treatment on fragmentation of fertilized eggs was examined in the same manner as the selenoneine treatment of sperm in Example 3, but using commercially available ergothioneine (final concentration: 100 nM) instead of selenoneine (FIG. 5). No difference in the proportion of 2-cell stage embryos was found between the ergothioneine treatment and selenoneine treatment (FIG. 5A).

The mark [7] stands for this setting: 10 nM to 100 μM, culturing 3, 6 and 9 hours.
[8] abbreviates: 100 μM, after culturing for 9 hours, p<0.05.

For the compound `C[N+](C)(C)[C@@H](Cc1cnc([Se-])[nH]1)C(=O)O` [selenoneine], in the assay on mouse sperm [1], the “sperm motility (proportion of motile sperm and progressive sperm)” value is listed as “No effect on sperm motility”. For the same compound, the fragmented embryos result with fertilized eggs [2] is given as “no fragmented embryos”; in the assay with fertilized eggs [6] (washed), “No fragmented embryos”. The “proportion of 2-cell stage embryos” value is “no difference” in the assay on fertilized eggs [2] and “no difference” in the assay with fertilized eggs [6] (washed, vs control). The “proportion of sperm which retained membranes” value in the assay on mouse sperm [3] (setting [7]) is recorded as “membrane-protecting effect”; in the assay on mouse sperm [3] (setting [8]), “significantly protected”. In addition, in the assay on eggs [4], the “reactive nitrogen species (RNS) in eggs” value is “significant reduction”. For the same compound, the “reactive oxygen species (ROS) in eggs” value in the assay with eggs [4] was “increased significantly”. Besides, in the assay on eggs [4], the superoxides in eggs entry is “No change”. The “degree of egg fragmentation” value with eggs [5] (100 nM, 1 μM and 10 μM in TYH medium, p<0.05) is reported as “significantly inhibited”.
With `C[N+](C)(C)[C@@H](Cc1c[nH]c(=S)[nH]1)C(=O)[O-]` [ergothioneine], the “proportion of sperm which retained membranes” value with mouse sperm [3] (setting [7]) is “membrane-protecting effect”. Also, the “proportion of sperm which retained membranes” value with mouse sperm [3] (setting [8]) is given as “significantly protected”. In addition, in the assay with eggs [4], the “reactive nitrogen species (RNS) in eggs” value is “no variation”, the “reactive oxygen species (ROS) in eggs” value is given as “increased significantly” and the superoxides in eggs result was “No change”. The egg fragmentation result in the assay with eggs [5] (10 nM to 10 μM in TYH medium) was “inhibition seen”. Moreover, the egg fragmentation entry with eggs [5] (1 μM in TYH medium, p<0.05) was “significantly inhibited”. In addition, in the assay with fertilized eggs [6] (washed), the fragmented embryos result was “reduced compared to the untreated control”. In the assay with fertilized eggs [6], the “proportion of 2-cell stage embryos, ergothioneine treatment versus selenoneine treatment” value is “No difference”.
